We go through one compound from patent publication US9303032B2, “2-(pyridin-2YL)-1, 7-diaza-spiro [4.4] nonane-6-one compound as voltage-gated sodium channels modulator” (CONVERGENCE PHARMACEUTICALS LIMITED, priority 2011, dated 2016).

Counter-ions that a name gives are not always drawn.

The target in this test is T1, hNaV1.7 (Homo sapiens, UniProt Q15858).
T1 construct: expressed in transfected cells; host or cells: HEK293
The experiment in a line: QPatch NaV1.7 assay. In kind it is cell-based. To be noted: HEK293-hNaV1.7 cells; holding potential −90 mV, most channels in closed state; read-out: QP Nav1.7 −90 mV pIC50 (converted). The method, then: The compounds of the invention were tested in a QPatch NaV1.7 assay.
HEK293-hNaV1.7 cells were grown in DMEM-F12+10% FBS culture media at 37° C. At a confluency of 50-70% cells were dissociated from culture flasks & triturated to ensure unicellular cell suspension; cell density was measured & adjusted to 2-3×10^6 cells/ml. Recordings were obtained using QPatch16×. The external solution was (in mM): NaCl, 128; KCl, 5; MgCl2, 2; CaCl2, 2; Glucose, 30; HEPES, 15; pH 7.3, 305-315 mOsm. Following seal formation and whole-cell access using internal solution (containing in mM: CsF, 135; EGTA/CsOH, ⅕; HEPES 10; NaCl, 10; pH 7.3, 310-320 mOsM), voltage pulse protocols were applied. Initially a steady state inactivation voltage protocol was used to determine the half-maximal voltage for steady state inactivation (V1/2 SSI). Two holding voltages were used to determine test drug inhibition: −90 mV, where most of the channels are in a closed state; and V1/2 SSI, where half of the channels are inactivated. Currents were elicited every 10 seconds by stepping to a membrane potential of 0 mV for 20 ms. Four-point cumulative concentration responses were derived by determining the peak current amplitude at each concentration of test drug over 120 second application. Curves were fitted with the Hill equation yielding pIC50 values at −90 mV and V1/2 SSI holding potentials.
For orientation: Patch clamp records ionic current or voltage across a cell membrane.

T1 sequence (Q15858 whole entry): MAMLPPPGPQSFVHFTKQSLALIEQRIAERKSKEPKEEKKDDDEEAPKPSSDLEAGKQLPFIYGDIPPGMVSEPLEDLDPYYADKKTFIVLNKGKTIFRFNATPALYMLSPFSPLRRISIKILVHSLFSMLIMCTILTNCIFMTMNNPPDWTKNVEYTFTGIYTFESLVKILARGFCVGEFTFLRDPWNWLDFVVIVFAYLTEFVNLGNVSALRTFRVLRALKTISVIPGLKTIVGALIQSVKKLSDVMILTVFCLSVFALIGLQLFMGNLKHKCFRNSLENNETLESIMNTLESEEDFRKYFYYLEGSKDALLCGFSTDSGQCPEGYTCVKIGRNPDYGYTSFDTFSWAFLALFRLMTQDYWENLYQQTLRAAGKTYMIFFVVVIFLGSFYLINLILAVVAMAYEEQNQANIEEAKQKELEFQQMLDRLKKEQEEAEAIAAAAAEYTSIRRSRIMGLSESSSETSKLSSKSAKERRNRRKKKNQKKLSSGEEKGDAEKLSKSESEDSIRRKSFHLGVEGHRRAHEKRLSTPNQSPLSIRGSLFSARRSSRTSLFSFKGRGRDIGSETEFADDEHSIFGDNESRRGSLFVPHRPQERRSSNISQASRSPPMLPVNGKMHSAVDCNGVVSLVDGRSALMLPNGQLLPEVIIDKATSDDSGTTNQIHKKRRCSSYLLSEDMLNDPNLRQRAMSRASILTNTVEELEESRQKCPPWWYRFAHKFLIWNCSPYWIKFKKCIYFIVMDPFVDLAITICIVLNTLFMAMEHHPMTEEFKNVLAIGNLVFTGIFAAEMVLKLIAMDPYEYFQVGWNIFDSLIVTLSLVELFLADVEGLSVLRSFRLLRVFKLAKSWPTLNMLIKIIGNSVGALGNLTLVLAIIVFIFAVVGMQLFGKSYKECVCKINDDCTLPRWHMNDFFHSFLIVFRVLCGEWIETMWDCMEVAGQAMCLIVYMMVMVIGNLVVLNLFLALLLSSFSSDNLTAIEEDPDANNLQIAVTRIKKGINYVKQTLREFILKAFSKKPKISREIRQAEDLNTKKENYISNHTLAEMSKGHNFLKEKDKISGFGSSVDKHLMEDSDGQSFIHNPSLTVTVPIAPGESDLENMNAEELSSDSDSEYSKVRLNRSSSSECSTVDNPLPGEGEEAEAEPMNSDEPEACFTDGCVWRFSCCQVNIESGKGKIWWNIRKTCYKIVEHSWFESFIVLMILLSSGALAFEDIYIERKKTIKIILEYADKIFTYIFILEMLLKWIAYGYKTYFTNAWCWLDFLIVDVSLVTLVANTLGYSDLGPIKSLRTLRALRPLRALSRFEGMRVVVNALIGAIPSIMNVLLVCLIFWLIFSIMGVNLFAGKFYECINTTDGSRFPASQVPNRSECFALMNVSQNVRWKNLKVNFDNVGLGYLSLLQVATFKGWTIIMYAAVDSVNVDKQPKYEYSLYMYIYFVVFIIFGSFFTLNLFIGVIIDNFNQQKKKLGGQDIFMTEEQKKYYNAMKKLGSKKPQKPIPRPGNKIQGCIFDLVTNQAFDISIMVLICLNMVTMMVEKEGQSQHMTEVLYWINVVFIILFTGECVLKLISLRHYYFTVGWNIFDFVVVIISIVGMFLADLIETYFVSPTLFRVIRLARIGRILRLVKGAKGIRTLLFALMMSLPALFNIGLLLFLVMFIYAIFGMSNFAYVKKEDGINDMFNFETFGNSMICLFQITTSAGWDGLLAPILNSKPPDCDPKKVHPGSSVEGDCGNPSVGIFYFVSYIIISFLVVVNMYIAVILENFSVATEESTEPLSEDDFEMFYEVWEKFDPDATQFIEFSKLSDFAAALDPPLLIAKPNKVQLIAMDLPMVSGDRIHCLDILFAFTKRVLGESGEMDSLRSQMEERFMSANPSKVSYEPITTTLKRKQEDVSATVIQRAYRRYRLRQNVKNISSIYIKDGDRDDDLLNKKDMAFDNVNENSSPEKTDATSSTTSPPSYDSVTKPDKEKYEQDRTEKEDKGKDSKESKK

Take `CN1CC[C@@]2(CC[C@H](c3cc(-c4cccc(OC(F)(F)F)c4)ccn3)N2)C1=O` [Example 1, (2R,5S)-7-Methyl-2-[4-[3-(trifluoromethoxy)phenyl]-2-pyridyl]-1,7-diazaspiro[4.4]nonan-6-one hydrochloride]: the IC50 is 50.1 µM.
